From patent US8906929B2, “Inhibitors of human immunodeficiency virus replication” (priority 2012, dated 2014)

Test system: recombinant NL-Rluc virus
Test: Inhibition of HIV replication (NL-RLuc virus in MT-2 cells, luciferase readout)
Assay type: cell-based
Conditions: Human immunodeficiency virus 1, MT2, 120 h, 5 days of incubation, 10% FBS

| Compound | EC50 |
| --- | --- |
| Cc1cc2c(cc1Cl)O[C@@H](C)CCCCOC1(C)CCN(CC1)c1c([C@H](OC(C)(C)C)C(=O)O)c(C)nc3cc(nn13)-c1cccc-2c1 [Example 67, (2S)-2-(tert-butoxy)-2-[(22S)-18-chloro-4,17,22,28-tetramethyl-21,27-dioxa-1,5,7,8-tetraazahexacyclo[26.2.2.1^6,^9.1^10,^14.0^2,^7.0^15,^20]tetratriaconta-2,4,6(34),8,10(33), 11, 13, 15 (20),16,18-decaen-3-yl]acetic acid] | 109 nM |
| Cc1ccc2c(c1F)-c1cccc(c1)-c1cc3nc(C)c([C@H](OC(C)(C)C)C(=O)O)c(n3n1)N1CCC(C)(CC1)OC/C=C/C[C@H](C)O2 [Example 68, (2S)-2-(tert-Butoxy)-2-[(22S,^24E)-16-fluoro-4,17,22,28-tetramethyl-21,27-dioxa-1,5,7,8-tetraazahexacyclo[26.2.2.1^6,^9.1^10,^14. 0^2,^7.0^15,^20]tetratriaconta-2,4,6(34),8,10(33), 11, 13, 15 (20), 16,18,24-undecaen-3-yl]acetic acid] | 9 nM |
| Cc1ccc2c(c1F)-c1cccc(c1)-c1cc3nc(C)c([C@H](OC(C)(C)C)C(=O)O)c(n3n1)N1CCC(C)(CC1)OC/C=C\C[C@H](C)O2 [Example 69, (2S)-2-(tert-Butoxy)-2-[(22S,24Z)-16-fluoro-4,17,22,28-tetramethyl-21,27-dioxa-1,5,7,8-tetraazahexacyclo[26.2.2.1^6,^9.1^10,^14.0^2,^7.0^15,^20]tetratriaconta-2,4,6(34),8,10(33), 11, 13, 15 (20),16,18,24-undecaen-3-yl]acetic acid] | 21 nM |
| Cc1ccc2c(c1F)-c1cccc(c1)-c1cc3nc(C)c([C@H](OC(C)(C)C)C(=O)O)c(n3n1)N1CCC(C)(CC1)OCCCC[C@H](C)O2 [Example 70, (2S)-2-(tert-Butoxy)-2-[(22S)-16-fluoro-4,17,22,28-tetramethyl-21,27-dioxa-1,5,7,8-tetraazahexacyclo[26.2.2.1^6,^9.1^10,^14.0^2,^7.0^15,^20]tetratriaconta-2,4, 6(34), 8, 10(33), 11, 13, 15(20),16,18-decaen-3-yl]acetic acid] | 19 nM |
| Cc1nc2cc3nn2c(c1[C@H](OC(C)(C)C)C(=O)O)N1CCC(C)(CC1)OCC=CC[C@H](C)Oc1ccc(C(N)=O)cc1-c1cccc-3c1 [Example 72, (2S)-2-(tert-Butoxy)-2-[(22S)-17-carbamoyl-4,22,27-trimethyl-21,26-dioxa-1,5,7,8-tetraazahexacyclo[25.2.2.1^6,^9.1^10,^14.0^2,^7.0^15,^20]tritriaconta-2,4, 6(33), 8, 10(32), 11, 13, 15(20),16,18,23-undecaen-3-yl]acetic acid] | 15 nM |
| Cc1nc2cc3nn2c(c1[C@H](OC(C)(C)C)C(=O)O)N1CCC(C)(CC1)OCCCC[C@H](C)Oc1ccc(C#N)cc1-c1cccc-3c1 [Example 73, (2S)-2-(tert-Butoxy)-2-[(22S)-17-cyano-4,22,28-trimethyl-21,27-dioxa-1,5,7,8-tetraazahexacyclo[26.2.2.1^6,^9.1^10,^14.0^2,^7.0^15,^20]tetratriaconta-2,4,6(34),8,10(33), 11, 13, 15(20),16,18-decaen-3-yl]acetic acid] | 6 nM |
| Cc1ccc2c(c1)O[C@@H](C)CCCCOC1(C)CCN(CC1)c1c([C@H](OC(C)(C)C)C(=O)O)c(C)nc3cc(nn13)-c1cccc-2c1 [Example 74, (2S)-2-(tert-Butoxy)-2-[(22S)-4,18,22,28-tetramethyl-21,27-dioxa-1,5,7,8-tetraazahexacyclo[26.2.2.1^6,^9.1^10,^14.0^2,^7.0^15,^20]tetratriaconta-2,4,6(34),8,10(33),11,13,15(20),16,18-decaen-3-yl]acetic acid] | 36 nM |
